Measurements from PubChem BioAssay (NCI).
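Test compounds were applied to cells in 96-well plates for 48 hours at 5 doses. GI50 is the concentration that inhibits growth by half. TGI: concentration producing complete growth inhibition.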

Key:
Assay in all cases: DTP human tumour cell line panel, 48 h
SF-295 CNS = tested on: SF-295 CNS
M14 melanoma = tested on: M14 melanoma
HT29 colon = tested on: HT29 colon
SNB-75 CNS = tested on: SNB-75 CNS
A549 NSCLC = tested on: A549 NSCLC
MCF7 breast = tested on: MCF7 breast
OVCAR-8 ovarian = tested on: OVCAR-8 ovarian
SK-MEL-2 melanoma = tested on: SK-MEL-2 melanoma
PC-3 prostate = tested on: PC-3 prostate
MOLT-4 leukemia = tested on: MOLT-4 leukemia

`O=C1c2cccnc2-c2nc(-c3ccc([N+](=O)[O-])cc3)cc3c2c1nc1ccccc13` was tested, and the GI50 (SF-295 CNS) was 4.47 µM, the TGI (SF-295 CNS) was 15.4 µM and the GI50 (M14 melanoma) was 1.9 µM. For the same compound, the TGI (M14 melanoma) was 4.43 µM, the GI50 (HT29 colon) was 11.9 µM and the TGI (HT29 colon) was 26.3 µM. It also gave a GI50 (SNB-75 CNS) of 4.43 µM, a TGI (SNB-75 CNS) of 12.1 µM and a GI50 (A549 NSCLC) of 2.58 µM. For the same compound, the TGI (A549 NSCLC) was 8.3 µM, the GI50 (MCF7 breast) was 1.86 µM and the TGI (MCF7 breast) was greater than 21.5 µM. For the same compound, the GI50 (OVCAR-8 ovarian) was 1.5 µM, the TGI (OVCAR-8 ovarian) was 6.76 µM and the GI50 (SK-MEL-2 melanoma) was 3.3 µM. For the same compound, the TGI (SK-MEL-2 melanoma) was 26.5 µM, the GI50 (PC-3 prostate) was 3.95 µM and the TGI (PC-3 prostate) was greater than 100 µM. For the same compound, the GI50 (MOLT-4 leukemia) was 53.5 µM and the TGI (MOLT-4 leukemia) was greater than 100 µM.
With `Fc1ccc(Nc2nc(Nc3ccc(-c4nc5ccccc5[nH]4)cc3)nc(N3CCCC3)n2)cc1` the GI50 (SF-295 CNS) was 1.97 µM, the TGI (SF-295 CNS) was 4.37 µM and the GI50 (M14 melanoma) was 1.89 µM. The TGI (M14 melanoma) was 3.95 µM, the GI50 (HT29 colon) was 2.54 µM and the TGI (HT29 colon) was 5.62 µM. It also gave a GI50 (SNB-75 CNS) of 1.7 µM, a TGI (SNB-75 CNS) of 3.89 µM and a GI50 (A549 NSCLC) of 3.07 µM. For the same compound, the TGI (A549 NSCLC) was 9.1 µM, the GI50 (MCF7 breast) was 1.9 µM and the TGI (MCF7 breast) was 5.22 µM. It also gave a GI50 (OVCAR-8 ovarian) of 2.36 µM, a TGI (OVCAR-8 ovarian) of 5.81 µM and a GI50 (SK-MEL-2 melanoma) of 13 µM. It also gave a TGI (SK-MEL-2 melanoma) of 28 µM, a GI50 (PC-3 prostate) of 2.74 µM and a TGI (PC-3 prostate) of 8.05 µM. The GI50 (MOLT-4 leukemia) was 2.19 µM and the TGI (MOLT-4 leukemia) was 5.74 µM.
For `COC(=O)c1c(-c2ccccc2)csc1NC(=O)c1c(-c2ccccc2)noc1C`, the GI50 (SF-295 CNS) was 0.598 µM, the TGI (SF-295 CNS) was greater than 21.5 µM and the GI50 (M14 melanoma) was 6.86 µM. It also gave a TGI (M14 melanoma) greater than 100 µM, a GI50 (HT29 colon) of 0.399 µM and a TGI (HT29 colon) greater than 100 µM. For the same compound, the GI50 (SNB-75 CNS) was 3.59 µM, the TGI (SNB-75 CNS) was greater than 100 µM and the GI50 (A549 NSCLC) was 0.568 µM. It also gave a TGI (A549 NSCLC) greater than 100 µM, a GI50 (MCF7 breast) of 0.6 µM and a TGI (MCF7 breast) greater than 100 µM. For the same compound, the GI50 (OVCAR-8 ovarian) was 0.776 µM, the TGI (OVCAR-8 ovarian) was greater than 100 µM and the TGI (SK-MEL-2 melanoma) was greater than 100 µM. For the same compound, the GI50 (PC-3 prostate) was 1.28 µM, the TGI (PC-3 prostate) was greater than 100 µM and the GI50 (MOLT-4 leukemia) was 1.22 µM. For the same compound, the TGI (MOLT-4 leukemia) was greater than 100 µM.
